Assay results published in the NIST ThermoML archive (doi:10.1016/j.fluid.2005.04.003).
Numbers after ± are expanded uncertainties.

Key:
[1] = Liquid; for mass density: 298.15 K, 101.33 kPa
[2] = refractive index (Na D-line) (dimensionless); conditions: 298.15 K; 101.33 kPa; Liquid; Standard Abbe refractometry

Row | Structure (SMILES) | mass density [1] | Normal boiling temperature [1] | refractive index [2]
1 | CCOC(C)(C)CC [1,1-dimethylpropyl ethyl ether] | 760.57 ± 0.66 kg/m3 | 101.42 ± 0.08 °C | 1.38857 ± 0.00072
2 | CCO [ethanol] | 785.22 ± 0.64 kg/m3 | 78.29 ± 0.08 °C | 1.3592 ± 0.00073
3 | CO [methanol] | 786.63 ± 0.63 kg/m3 | 64.4 ± 0.08 °C | 1.3264 ± 0.0007
